Measured values taken from US8784911B2, “Compositions for treatment and prevention of diabetic complications using Osteomeles schwerinae” (Korea Institute of Oriental Medicine, priority 2009, dated 2014).

Experiments:
[1] = Free radical scavenging activity by DPPH method; type: biochemical; settings: 30 minutes, room temperature
Procedure: Anti-oxidative effect of Osteomeles […] extract, fractions thereof obtained from each of hexane layer, ethyl acetate layer, butanol layer and water layer of the extract was investigated in vitro. Free radical scavenging activity of each sample was measured by DPPH method (Brand-Williams W, et al., Technology, 1995, 28, 25-30). Samples were dissolved in ethanol, and diluted at different concentrations. Each of the diluted sample was distributed in 96 well plate (20 μl/well). […] DPPH solution dissolved in ethanol was added to each well by 180 μl to make the final volume of the reaction solution 200 μl, followed by reaction at room temperature for 30 minutes. Then, OD517 was measured with ELISA reader (Bio-TEK, Synergy HT, USA) to investigate absorbance changes by reduction of DPPH. Free radical scavenging activity was presented as RC50, which is the amount of sample (μg/ml) needed for the reduction of 50% DPPH. For the positive control, butylated hydroxytoluene (BHT) was used. Anti-oxidative effect of Osteomeles […] extract was measured in vitro by the same manner as described above and the results are shown in Table 7.

[2] = system: type II diabetes animal model, Spontaneous Diabetic Torii (SDT) rat; assay: Type II diabetes animal model, SDT rat; type: in vivo; settings: oral once a day 16 weeks; extract 100 and 350 mg/kg as printed; metformin 350 mg/kg; vs diabetes group
[3] = system: type II diabetes animal model, Spontaneous Diabetic Torii (SDT) rat; assay: Type II diabetes animal model, SDT rat; type: in vivo
Text: To investigate the preventive and therapeutic effect of Osteomeles schwerinae on diabetic complications in type II diabetes animal model, the extract was orally administered to Spontaneous Diabetic Torii (SDT) rats for 16 weeks, followed by analysis of the effect. Spontaneous Diabetic Torii (SDT) rats, the type II diabetes animal model, were used as test animals. Particularly, male SDT rats at 10 weeks (CLEA Japan Inc., Tokyo, Japan) were adapted for 1 week, and then raised for 15 weeks until high blood glucose was induced up to the level of 300 mg/dl. Feeds and water were provided freely. 15 weeks later, the rats were divided into 5 groups, 8 rats per each group. As test drugs, Osteomeles schwerinae extract (Os-100, OS-250) and metformin (MET, control drug) were orally administered once a day. The experimental groups were as follows: the normal group (NOR), the diabetes group (DM), the diabetes group treated with 350 mg/kg of metformin (MET), the diabetes group treated with 100 mg/kg of Osteomeles schwerinae extract (OS-100), and the diabetes group treated with 250 mg/kg of Osteomeles schwerinae extract (OS-250). Each group was orally administered with the test drug once a day for 16 weeks. Urine was taken for 24 hours before autopsy. The organs extracted from the autopsy were stored at −80° C.
The test animals were anesthetized by peritoneally injecting pentobarbital sodium (25 mg/kg body weight). Heart was extracted by opening abdominal cavity and thoracic cavity. 50 mg/ml of fluorescein-dextran (2×10^6 molecular weight) dissolved in 1 ml/ml sterilized PBS was injected in the left ventricle. 10 minutes later, eye balls were extracted. Retina was separated from eyecup of the left eye ball. The isolated retina was placed on the slide, followed by mounting with aqueous mounting medium. The slide was completely dried and observed under fluorescent microscope. Fluorescent material was injected in retinal blood vessel, followed by observation. […] To investigate blood-retinal barrier damage, outflow of the fluorescent material was observed. […] However, the fluorescent material was leaked out of blood vessels, indicating blood-retinal barrier damage, in multiple animals of the diabetes group (arrow), and non-perfusion area (arrow) caused by the blood vessel being narrow was also observed in some of those animals in the diabetes group.
Lens was separated and lens opacity was examined to investigate the preventive effect of the extract on lens opacity. Eye balls were extracted during autopsy, which were placed in PBS (phosphate buffered saline, pH 7.4). Lens was carefully separated from the eyeball by posterior approach. Then, iris and zonule were eliminated. The lens was photographed under optical microscope equipped with CCD camera (BX51, Olympus, Japan). Lens opacity was measured with the photographed lens images by using Scion image analyzer (Scion Corporation, USA). The results of investigation of lens opacity with the lens isolated from the eye ball extracted during autopsy are shown in FIG. 39 and in FIG. 40. […] Incidence rate of cataract and lens opacity were quantitatively analyzed.
Lens opacity is caused by the degeneration of lens fiber composing lens. Thus, to investigate the effect of Osteomeles schwerinae extract on lens fiber degeneration, the effect of Osteomeles schwerinae extract on lens fiber degeneration in SDT type II diabetes rat was analyzed. To observe the degeneration of lens fiber induced by cataract, lens was fixed in 10% neutralized formalin (Microme, USA) for 24 hours, followed by the conventional tissue treatment. After paraffin embedding, the embedded block was cut into 2 μm thick sections, followed by hydration. The sections were stained with rhodamine-labeled wheat-germ agglutinin (WGA, Vector Laboratory, USA), and observed under fluorescent microscope (BX51, Olympus, Japan). To investigate the preventive effect on lens fiber degeneration, lens was stained and observed. […]

| SMILES | RC50 (μg/ml), amount of sample needed for the reduction of 50% DPPH [1] [µg/mL] | level of AGEs in urine [2] | blood-retinal barrier damage, outflow of the fluorescent material ([3]; 16 weeks) | pericyte loss, acellular capillary formation and closed vessels ([3]; 16 weeks) | GFAP positive reaction, Muller cell activation ([3]; 16 weeks, vs diabetes group) | aldose reductase (AR) activity in lens ([3]; 16 weeks, extract 250 mg/ml as printed, metformin, vs diabetes group) | lens fiber degeneration, swelling and vesicle formation ([3]; 16 weeks, extract high concentration, metformin 350 mg/kg) | retinal angiogenesis, fluorescein-dextran ([3]; 16 weeks, extract low and high concentration, metformin 350 mg/kg) | podocyte loss, synaptopodin staining ([3]; 16 weeks, extract low and high concentration, metformin 350 mg/kg, vs diabetes group) | glomerular hypertrophy and mesangial matrix enlargement, PAS staining ([3]; oral once a day 16 weeks, extract 100 and 250 mg/kg, metformin 350 mg/kg) |
| --- | --- | --- | --- | --- | --- | --- | --- | --- | --- | --- |
| Cc1cc(C(C)(C)C)c(O)c(C(C)(C)C)c1 [BHT, butylated hydroxytoluene] | 26.75 ± 10.75 |  |  |  |  |  |  |  |  |  |
| CN(C)C(=N)N=C(N)N [metformin] |  | not significantly changed | observed just barely | significantly inhibited | rather decreased | AR activity was significantly reduced | improving effect was hardly observed | Angiogenesis was also observed | no significant difference | morphological changes were reduced, which was not significant |
